Reference: US20040136975A1 (priority 2004, published 2004)

Key:
transfected EC cells = conditions: cited from earlier work
VEGF = conditions: cited from earlier work
[1] = test system: non-transformed (pDCR) NIH 3T3 cells; test: cells; type: cell-based; conditions: Mus musculus, NIH3T3, 48 h, read-out: inhibition of growth
transformed cells = conditions: cited from earlier work

Molecule | basal motility and motility stimulated by JNK agonists (transfected EC cells) | up-regulation of VEGF by heregulin (VEGF) | inhibition at 50 µM [1] | morphological reversion of transformed cells (transformed cells)
COc1cc(/C=C/C(=O)CC(=O)/C=C/c2ccc(O)c(OC)c2)ccc1O [curcumin] | decreased |  |  | 
trans-retinoic acid | decreased |  |  | 
SB203580 |  | blocks |  | 
COc1cccc(-c2cc(=O)c3ccccc3o2)c1N [PD98059] |  | not | 50% | causes morphological reversion
